Numbers after ± are expanded uncertainties.
How the values were obtained:
[1] = Crystal
[2] = molar heat capacity at constant pressure; settings: 101.33 kPa, Crystal, Small sample (50 mg) DSC

CCCCC(=O)c1ccc(O)cc1 [1-(4-hydroxyphenyl)-1-pentanone]
mass density ([1]; 298 K, 101.33 kPa, X-ray diffraction): 1204.5 ± 8 kg/m3
Normal melting temperature ([1]; DTA): 61.1 ± 0.8 °C
molar heat capacity at constant pressure ([2]; 288.67 K): 235 ± 7.5 J/K/mol
molar heat capacity at constant pressure ([2]; 288.92 K): 235.9 ± 7.3 J/K/mol
molar heat capacity at constant pressure ([2]; 289.17 K): 235.2 ± 6.7 J/K/mol
molar heat capacity at constant pressure ([2]; 289.42 K): 236.4 ± 6.7 J/K/mol
molar heat capacity at constant pressure ([2]; 289.67 K): 236 ± 7.7 J/K/mol
molar heat capacity at constant pressure ([2]; 289.92 K): 235.3 ± 7.5 J/K/mol
molar heat capacity at constant pressure ([2]; 290.17 K): 236.5 ± 7.5 J/K/mol
molar heat capacity at constant pressure ([2]; 290.42 K): 236.3 ± 7.5 J/K/mol
molar heat capacity at constant pressure ([2]; 290.68 K): 238 ± 8.1 J/K/mol
molar heat capacity at constant pressure ([2]; 290.93 K): 236.4 ± 7.1 J/K/mol
molar heat capacity at constant pressure ([2]; 291.18 K): 236.8 ± 7.7 J/K/mol
molar heat capacity at constant pressure ([2]; 291.43 K): 238 ± 8.1 J/K/mol
molar heat capacity at constant pressure ([2]; 291.68 K): 237.8 ± 8.1 J/K/mol
molar heat capacity at constant pressure ([2]; 291.93 K): 236.7 ± 7.7 J/K/mol
molar heat capacity at constant pressure ([2]; 292.18 K): 237.4 ± 7.5 J/K/mol
molar heat capacity at constant pressure ([2]; 292.43 K): 238.5 ± 7.7 J/K/mol
molar heat capacity at constant pressure ([2]; 292.68 K): 239 ± 8.8 J/K/mol
molar heat capacity at constant pressure ([2]; 292.93 K): 239.6 ± 7.5 J/K/mol
molar heat capacity at constant pressure ([2]; 293.18 K): 239.6 ± 7.7 J/K/mol
molar heat capacity at constant pressure ([2]; 293.43 K): 240 ± 7.7 J/K/mol
molar heat capacity at constant pressure ([2]; 293.68 K): 240.4 ± 8.8 J/K/mol
molar heat capacity at constant pressure ([2]; 293.93 K): 239.8 ± 8.3 J/K/mol
molar heat capacity at constant pressure ([2]; 294.18 K): 239.1 ± 7.7 J/K/mol
molar heat capacity at constant pressure ([2]; 294.44 K): 239.1 ± 8.3 J/K/mol
molar heat capacity at constant pressure ([2]; 294.69 K): 240.8 ± 8.3 J/K/mol
molar heat capacity at constant pressure ([2]; 294.94 K): 240.4 ± 8.3 J/K/mol
molar heat capacity at constant pressure ([2]; 295.19 K): 239.8 ± 7.7 J/K/mol
molar heat capacity at constant pressure ([2]; 295.44 K): 240.5 ± 7.1 J/K/mol
molar heat capacity at constant pressure ([2]; 295.69 K): 241.6 ± 7.5 J/K/mol
molar heat capacity at constant pressure ([2]; 295.94 K): 241.1 ± 7.5 J/K/mol
molar heat capacity at constant pressure ([2]; 296.19 K): 240.8 ± 7.9 J/K/mol
molar heat capacity at constant pressure ([2]; 296.44 K): 242.1 ± 8.1 J/K/mol
molar heat capacity at constant pressure ([2]; 296.69 K): 241.7 ± 7.7 J/K/mol
molar heat capacity at constant pressure ([2]; 296.94 K): 241.2 ± 8.6 J/K/mol
molar heat capacity at constant pressure ([2]; 297.19 K): 241.5 ± 8.3 J/K/mol
molar heat capacity at constant pressure ([2]; 297.44 K): 242.2 ± 8.6 J/K/mol
molar heat capacity at constant pressure ([2]; 297.69 K): 241.6 ± 7.7 J/K/mol
molar heat capacity at constant pressure ([2]; 297.94 K): 242.5 ± 8.1 J/K/mol
molar heat capacity at constant pressure ([2]; 298.19 K): 242.7 ± 8.3 J/K/mol
molar heat capacity at constant pressure ([2]; 298.44 K): 242.8 ± 7.7 J/K/mol
molar heat capacity at constant pressure ([2]; 298.69 K): 241.8 ± 7.9 J/K/mol
molar heat capacity at constant pressure ([2]; 298.94 K): 242.3 ± 7.5 J/K/mol
molar heat capacity at constant pressure ([2]; 299.19 K): 242.3 ± 6.9 J/K/mol
molar heat capacity at constant pressure ([2]; 299.44 K): 242.2 ± 8.1 J/K/mol
molar heat capacity at constant pressure ([2]; 299.69 K): 242.9 ± 8.6 J/K/mol
molar heat capacity at constant pressure ([2]; 299.94 K): 244.1 ± 8.8 J/K/mol
molar heat capacity at constant pressure ([2]; 300.19 K): 244.9 ± 8.6 J/K/mol
molar heat capacity at constant pressure ([2]; 300.44 K): 244.3 ± 8.4 J/K/mol
molar heat capacity at constant pressure ([2]; 300.69 K): 244.4 ± 8.1 J/K/mol
molar heat capacity at constant pressure ([2]; 300.94 K): 244.7 ± 8.8 J/K/mol
molar heat capacity at constant pressure ([2]; 301.19 K): 244.5 ± 8.4 J/K/mol
molar heat capacity at constant pressure ([2]; 301.44 K): 243.4 ± 8.4 J/K/mol
molar heat capacity at constant pressure ([2]; 301.69 K): 244.2 ± 8.1 J/K/mol
molar heat capacity at constant pressure ([2]; 301.94 K): 244.9 ± 8.2 J/K/mol
molar heat capacity at constant pressure ([2]; 302.19 K): 245.3 ± 8.4 J/K/mol
molar heat capacity at constant pressure ([2]; 302.44 K): 245.1 ± 8.6 J/K/mol
molar heat capacity at constant pressure ([2]; 302.69 K): 244.8 ± 8.6 J/K/mol
molar heat capacity at constant pressure ([2]; 302.94 K): 245.6 ± 8.8 J/K/mol
molar heat capacity at constant pressure ([2]; 303.19 K): 246.4 ± 9 J/K/mol
molar heat capacity at constant pressure ([2]; 303.44 K): 246.5 ± 8.2 J/K/mol
molar heat capacity at constant pressure ([2]; 303.69 K): 247 ± 8.2 J/K/mol
molar heat capacity at constant pressure ([2]; 303.94 K): 247.4 ± 8.8 J/K/mol
molar heat capacity at constant pressure ([2]; 304.19 K): 247.3 ± 9.2 J/K/mol
molar heat capacity at constant pressure ([2]; 304.44 K): 247.5 ± 9 J/K/mol
molar heat capacity at constant pressure ([2]; 304.69 K): 246.8 ± 8.8 J/K/mol
molar heat capacity at constant pressure ([2]; 304.94 K): 246.8 ± 9 J/K/mol
molar heat capacity at constant pressure ([2]; 305.19 K): 247.1 ± 9.6 J/K/mol
molar heat capacity at constant pressure ([2]; 305.44 K): 248.1 ± 9.9 J/K/mol
molar heat capacity at constant pressure ([2]; 305.69 K): 247.8 ± 9.4 J/K/mol
molar heat capacity at constant pressure ([2]; 305.94 K): 247.5 ± 9.2 J/K/mol
molar heat capacity at constant pressure ([2]; 306.19 K): 247.7 ± 9.7 J/K/mol
molar heat capacity at constant pressure ([2]; 306.44 K): 248.9 ± 9.7 J/K/mol
molar heat capacity at constant pressure ([2]; 306.69 K): 248.8 ± 10 J/K/mol
molar heat capacity at constant pressure ([2]; 306.94 K): 249.6 ± 10 J/K/mol
molar heat capacity at constant pressure ([2]; 307.19 K): 250.4 ± 9.7 J/K/mol
molar heat capacity at constant pressure ([2]; 307.44 K): 250.1 ± 9.7 J/K/mol
molar heat capacity at constant pressure ([2]; 307.69 K): 250.1 ± 9.4 J/K/mol
molar heat capacity at constant pressure ([2]; 307.94 K): 249.4 ± 9.7 J/K/mol
molar heat capacity at constant pressure ([2]; 308.19 K): 249.7 ± 9.4 J/K/mol
molar heat capacity at constant pressure ([2]; 308.44 K): 250.1 ± 9.9 J/K/mol
molar heat capacity at constant pressure ([2]; 308.69 K): 249.7 ± 9.4 J/K/mol
molar heat capacity at constant pressure ([2]; 308.94 K): 250.3 ± 9.9 J/K/mol
molar heat capacity at constant pressure ([2]; 309.19 K): 250.8 ± 9.9 J/K/mol
molar heat capacity at constant pressure ([2]; 309.44 K): 251.7 ± 10 J/K/mol
molar heat capacity at constant pressure ([2]; 309.69 K): 252.9 ± 11 J/K/mol
molar heat capacity at constant pressure ([2]; 309.94 K): 251.9 ± 9.9 J/K/mol
molar heat capacity at constant pressure ([2]; 310.19 K): 253.2 ± 10 J/K/mol
molar heat capacity at constant pressure ([2]; 310.44 K): 253.8 ± 9.7 J/K/mol
molar heat capacity at constant pressure ([2]; 310.69 K): 253.1 ± 9 J/K/mol
molar heat capacity at constant pressure ([2]; 310.94 K): 253.2 ± 8.8 J/K/mol
molar heat capacity at constant pressure ([2]; 311.19 K): 252.6 ± 9.7 J/K/mol
molar heat capacity at constant pressure ([2]; 311.44 K): 252.4 ± 9.9 J/K/mol
molar heat capacity at constant pressure ([2]; 311.69 K): 253.1 ± 10 J/K/mol
molar heat capacity at constant pressure ([2]; 311.94 K): 252.2 ± 9.5 J/K/mol
molar heat capacity at constant pressure ([2]; 312.19 K): 252.8 ± 9 J/K/mol
molar heat capacity at constant pressure ([2]; 312.44 K): 252.4 ± 9.9 J/K/mol
molar heat capacity at constant pressure ([2]; 312.69 K): 253.6 ± 9.3 J/K/mol
molar heat capacity at constant pressure ([2]; 312.94 K): 254 ± 10 J/K/mol
molar heat capacity at constant pressure ([2]; 313.19 K): 253.3 ± 9.3 J/K/mol
molar heat capacity at constant pressure ([2]; 313.44 K): 254.6 ± 9.7 J/K/mol
molar heat capacity at constant pressure ([2]; 313.69 K): 255.2 ± 10 J/K/mol
molar heat capacity at constant pressure ([2]; 313.94 K): 255 ± 10 J/K/mol
molar heat capacity at constant pressure ([2]; 314.19 K): 255.4 ± 10 J/K/mol
molar heat capacity at constant pressure ([2]; 314.44 K): 256.5 ± 11 J/K/mol
molar heat capacity at constant pressure ([2]; 314.69 K): 256.9 ± 10 J/K/mol
molar heat capacity at constant pressure ([2]; 314.94 K): 256.1 ± 11 J/K/mol
molar heat capacity at constant pressure ([2]; 315.19 K): 256 ± 10 J/K/mol
molar heat capacity at constant pressure ([2]; 315.44 K): 255.8 ± 9.5 J/K/mol
molar heat capacity at constant pressure ([2]; 315.69 K): 255.8 ± 9.9 J/K/mol
molar heat capacity at constant pressure ([2]; 315.94 K): 256 ± 11 J/K/mol
molar heat capacity at constant pressure ([2]; 316.19 K): 256.4 ± 11 J/K/mol
molar heat capacity at constant pressure ([2]; 316.44 K): 256.4 ± 11 J/K/mol
molar heat capacity at constant pressure ([2]; 316.69 K): 257.2 ± 11 J/K/mol

Reference: the NIST ThermoML archive (doi:10.1016/j.jct.2016.09.026)
